Where “and” joins values, the source holds several entries; their conditions need not be identical. Equal entries are not always repeated. Toxic doses and inconclusive results are not listed. Cut-off read from the data, not from the text of the source: active = T/C of 150% or more; inactive = T/C below 125%.
Test system: L1210 leukemia ip in BDF1 mice, survival T/C
Test: NCI In Vivo Anticancer Drug Screen. Data for tumor model L1210 Leukemia (intraperitoneal) in B6D2F1 (BDF1) mice
Settings: endpoint: mean survival time, higher = longer survival
Method in brief: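 Each compound was tested against a transplantable tumor grown in mice. The endpoint was survival, with treated animals benchmarked against vehicle controls as a simple ratio.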

[1] = dose: 100.0 mg/kg/injection, schedule: Q04DX003 (ip), vehicle: Klucel (hydroxypropylcellulose) (HPC)
[2] = dose: 200.0 mg/kg/injection, schedule: Q04DX003 (ip), vehicle: Klucel (hydroxypropylcellulose) (HPC)
[3] = dose: 400.0 mg/kg/injection, schedule: Q04DX003 (ip), vehicle: Klucel (hydroxypropylcellulose) (HPC)
[4] = dose: 100.0 mg/kg/injection, schedule: Q01DX001 (ip), vehicle: Klucel (hydroxypropylcellulose) (HPC)
[5] = dose: 100.0 mg/kg/injection, schedule: Q01DX009 (ip), vehicle: Klucel (hydroxypropylcellulose) (HPC)
[6] = dose: 200.0 mg/kg/injection, schedule: Q01DX009 (ip), vehicle: Klucel (hydroxypropylcellulose) (HPC)
[7] = dose: 400.0 mg/kg/injection, schedule: Q01DX009 (ip), vehicle: Klucel (hydroxypropylcellulose) (HPC)
[8] = dose: 100.0 mg/kg/injection, schedule: Q04DX003 (ip), vehicle: saline with Tween-80
[9] = dose: 200.0 mg/kg/injection, schedule: Q04DX003 (ip), vehicle: saline with Tween-80
[10] = dose: 400.0 mg/kg/injection, schedule: Q04DX003 (ip), vehicle: saline with Tween-80
[11] = dose: 100.0 mg/kg/injection, schedule: Q01DX009 (ip), vehicle: saline with Tween-80
[12] = dose: 200.0 mg/kg/injection, schedule: Q01DX009 (ip), vehicle: saline with Tween-80
[13] = dose: 400.0 mg/kg/injection, schedule: Q01DX009 (ip), vehicle: saline with Tween-80

Measured: T/C

N=C(c1ccccc1)c1ccccc1
inactive: dose: 100.0 mg/kg/injection, schedule: Q01DX001 (ip), vehicle: saline with Tween-80 100 % of control | dose: 200.0 mg/kg/injection, schedule: Q01DX001 (ip), vehicle: saline with Tween-80 101 % of control | dose: 400.0 mg/kg/injection, schedule: Q01DX001 (ip), vehicle: saline with Tween-80 94 % of control

O=[N+]([O-])c1ccc(Oc2cccc(C(F)(F)F)c2)cc1
inactive: [1] 95 % of control | [2] 96 % of control | [3] 96 % of control

COCCCN=C(N)c1ccc(NC(=O)c2ccc(C(=O)Nc3ccc(C(N)=NCCCOC)cc3)cc2)cc1
active: dose: 3.0 mg/kg/injection, schedule: Q01DX Z (ip), vehicle: saline 156 % of control and 183 % of control | dose: 4.0 mg/kg/injection, schedule: Q01DX Z (ip), vehicle: saline 223 % of control | dose: 4.0 mg/kg/injection, schedule: Q01DX Z (sc), vehicle: saline 154 % of control | dose: 6.0 mg/kg/injection, schedule: Q01DX Z (ip), vehicle: saline 269 % of control | dose: 8.0 mg/kg/injection, schedule: Q01DX006 (iv), vehicle: saline 189 % of control | dose: 8.0 mg/kg/injection, schedule: Q01DX Z (sc), vehicle: saline 158 % of control | dose: 16.0 mg/kg/injection, schedule: Q02DX004 (im), vehicle: saline 154 % of control
inactive: dose: 0.75 mg/kg/injection, schedule: Q01DX Z (ip), vehicle: saline 114 % of control | dose: 1.0 mg/kg/injection, schedule: Q01DX006 (iv), vehicle: saline 106 % of control | dose: 1.0 mg/kg/injection, schedule: Q01DX Z (ip), vehicle: saline 119 % of control | dose: 1.0 mg/kg/injection, schedule: Q01DX Z (sc), vehicle: saline 102 % of control | dose: 1.0 mg/kg/injection, schedule: Q02DX004 (im), vehicle: saline 96 % of control | dose: 2.0 mg/kg/injection, schedule: Q01DX006 (iv), vehicle: saline 98 % of control | dose: 2.0 mg/kg/injection, schedule: Q01DX Z (sc), vehicle: saline 90 % of control | dose: 2.0 mg/kg/injection, schedule: Q02DX004 (im), vehicle: saline 107 % of control | dose: 4.0 mg/kg/injection, schedule: Q01DX006 (iv), vehicle: saline 122 % of control | dose: 4.0 mg/kg/injection, schedule: Q02DX004 (im), vehicle: saline 106 % of control | dose: 6.0 mg/kg/injection, schedule: Q01DX Z (oral), vehicle: saline 97 % of control | dose: 12.0 mg/kg/injection, schedule: Q01DX Z (oral), vehicle: saline 100 % of control | dose: 15.0 mg/kg/injection, schedule: Q01DX Z (ip), vehicle: saline 115 % of control | dose: 16.0 mg/kg/injection, schedule: Q01DX Z (ip), vehicle: saline 112 % of control | dose: 16.0 mg/kg/injection, schedule: Q01DX Z (sc), vehicle: saline 116 % of control | dose: 24.0 mg/kg/injection, schedule: Q01DX Z (oral), vehicle: saline 102 % of control | dose: 32.0 mg/kg/injection, schedule: Q02DX004 (im), vehicle: saline 118 % of control | dose: 48.0 mg/kg/injection, schedule: Q01DX Z (oral), vehicle: saline 100 % of control | dose: 62.5 mg/kg/injection, schedule: Q## X010 (oral), vehicle: saline 96 % of control | dose: 250.0 mg/kg/injection, schedule: Q## X010 (oral), vehicle: saline 119 % of control

COC1=CC(C)C2CC3OC(O)CC4C(C)=C(OC)C(=O)C(C2(C)C1=O)C34C (centres undefined)
inactive: [4] 102 % of control | [5] 91 % of control | [1] 96 % of control | dose: 200.0 mg/kg/injection, schedule: Q01DX001 (ip), vehicle: Klucel (hydroxypropylcellulose) (HPC) 105 % of control | [6] 100 % of control | [2] 97 % of control | dose: 400.0 mg/kg/injection, schedule: Q01DX001 (ip), vehicle: Klucel (hydroxypropylcellulose) (HPC) 105 % of control | [7] 94 % of control | [3] 96 % of control

Cc1cccc(NC(=O)NCCO)c1
inactive: dose: 100.0 mg/kg/injection, schedule: Q01DX001 (ip), vehicle: carboxymethylcellulose (CMC) 103 % of control | dose: 200.0 mg/kg/injection, schedule: Q01DX001 (ip), vehicle: carboxymethylcellulose (CMC) 109 % of control | dose: 400.0 mg/kg/injection, schedule: Q01DX001 (ip), vehicle: carboxymethylcellulose (CMC) 97 % of control

COc1ccc(C2=CC(O)CC(c3ccccc3)C2c2ccccc2)cc1 (centres undefined)
inactive: [8] 105 % of control | [9] 103 % of control | [10] 91 % of control

CCCCCCCCCCCCCCCCCC[N+]1(Cc2ccccc2)CCOCC1
inactive: [4] 110 % of control

CC1CC[N+]2(CC(=O)c3ccc(Br)cc3)CCCC12 (centres undefined)
inactive: dose: 12.5 mg/kg/injection, schedule: Q01DX001 (ip), vehicle: saline 101 % of control | dose: 25.0 mg/kg/injection, schedule: Q01DX001 (ip), vehicle: saline 104 % of control | dose: 50.0 mg/kg/injection, schedule: Q01DX001 (ip), vehicle: saline 98 % of control

CCOc1ccccc1CC(=O)O
inactive: [11] 88 % of control | [8] 92 % of control | [12] 98 % of control | [9] 87 % of control | [13] 101 % of control | [10] 92 % of control

CC(=O)n1cc(/C=C2\N=C(c3cccc(Cl)c3)OC2=O)c2ccccc21
inactive: [5] 112 % of control | [6] 104 % of control | [7] 101 % of control

Oc1c(-c2ccccc2)n[nH]c1-c1ccccc1
inactive: dose: 50.0 mg/kg/injection, schedule: Q01DX009 (ip), vehicle: Klucel (hydroxypropylcellulose) (HPC) 98 % of control | [5] 98 % of control | [6] 94 % of control

CC(=O)Nc1ccc(SSSc2ccc(NC(C)=O)cc2)cc1
inactive: dose: 1.56 mg/kg/injection, schedule: Q01DX009 (ip), vehicle: water 100 % of control | dose: 3.12 mg/kg/injection, schedule: Q01DX009 (ip), vehicle: water 92 % of control | dose: 6.25 mg/kg/injection, schedule: Q01DX009 (ip), vehicle: water 96 % of control | dose: 12.5 mg/kg/injection, schedule: Q01DX009 (ip), vehicle: water 91 % of control | dose: 25.0 mg/kg/injection, schedule: Q01DX009 (ip), vehicle: water 94 % of control and 88 % of control | dose: 200.0 mg/kg/injection, schedule: Q01DX009 (ip), vehicle: water 92 % of control

CCC(CC)CCCC(C)Nc1ccnc2cc(Cl)ccc12 (centres undefined)
inactive: dose: 6.25 mg/kg/injection, schedule: Q01DX009 (ip), vehicle: saline 101 % of control | dose: 12.5 mg/kg/injection, schedule: Q01DX009 (ip), vehicle: saline 98 % of control | dose: 25.0 mg/kg/injection, schedule: Q01DX009 (ip), vehicle: saline 95 % of control

O=C(N/N=C/c1ccccc1O)c1ccccc1O
inactive: [8] 95 % of control | [9] 92 % of control | [10] 93 % of control

COC(OC)C1OC(C)(C)OC1C(OS(=O)(=O)c1ccc(C)cc1)C1COC(C)(C)O1 (centres undefined)
inactive: [8] 97 % of control | [9] 91 % of control | [10] 89 % of control

CCSc1nc(C)cc(Cl)n1
inactive: [8] 100 % of control | [9] 93 % of control

O=C(O)C1C2C=CC(C2)C1C(=O)O (centres undefined)
inactive: [11] 97 % of control | [12] 96 % of control | [13] 98 % of control
